# Patent US20220313658A1, “YAP Inhibition for Wound Healing” (The Board of Trustees of the Leland Stanford Junior …, priority 2019, published 2022)
# Key:
# Format in all cases: in vivo, mouse
# dorsal excisional wounds [1] = experiment: Dorsal excisional wounding, wound base injected with Verteporfin: gross, histology, immunofluorescence
# Description: P60 En-1^Cre;R26^mTmG, En-1^Cre;Ai6, and En-1^Cre-ERT;Ai6 mice were used for cutaneous wound healing experiments in accordance with well-established protocols. Briefly, mice were anesthetized (2% isofiuorane), their dorsal hair was removed with depilatory cream, and the dorsal skin was prepped with alcohol wipes. Next, two 6 mm full-thickness circular wounds were placed through the panniculus carnosus on the dorsum of each animal at the same level, roughly 6 mm below the ears and 4 mm lateral to the midline. The wounds were then stented open by 12 mm diameter silicone rings secured around the wound perimeter with glue and 8 simple interrupted Ethilon 6-0 sutures (Ethicon). For mice receiving mechanotransduction inhibitor, 30 μL of Verteporfin (1 mg/mL) was injected locally into the wound base; PBS was injected into wounds for vehicle controls. Post-operative analgesia was accomplished with buprenorphine 0.05 mg/kg every four hours for three doses, and then as indicated. Dressings were changed every other day under anesthesia. All wounds were fully re-epithelialized by post-operative day (POD) 14, at which time the wound and surrounding skin (used as unwounded control) were harvested and processed for histology. Induction of En-1^Cre-ERT;Ai6 mice was achieved by 5 consecutive days of intraperitoneal tamoxifen injections (90% corn oil/ethanol v/v; 200 mg/kg body weight) prior to wounding. In all experiments, a minimum of 3 mice with 2 wounds each was used for each treatment group.
# Tissues were fixed in 2% paraformaldehyde for 16 h at 4° C. Samples were prepared for embedding by soaking in 30% sucrose in PBS for 1 week at 4° C. Samples were then removed from the sucrose solution, and tissue blocks were prepared by embedding in Tissue Tek U.C.T. (Sakura Finetek) under dry ice to achieve rapid freezing. Frozen blocks were mounted on a Thermo Scientific CryoStar NX70 cryostat, and 10 μm-thick sections were transferred to SuperfrostfPlus adhesive slides (Fisher). For hematoxylin and eosin staining, standard protocols were used with no modifications. For immunofluorescent staining, slides were blocked for 1 hr with Power Block (Biogenex) prior to addition of the following primary antibodies: Abeam ab34710 (anti-collagen type I), Abeam ab28340 (anti-CD26), Invitrogen MA5-15915 (anti-Dlk1), Abeam ab51317 (anti-Scat), Abeam ab5694 (anti-α-SMA), Santa Cruz Biotechnology sc-101199 (anti-YAP), Abeam ab7800 (anti-CK14), and Abeam ab52625 (anti-CK19). Slides were then incubated for 1 h with Alexa Fluor 568 or Alexa Fluor 647-conjugated anti-rabbit, anti-rat, or anti-mouse antibodies (Invitrogen). Finally, slides were mounted in Fluoromount-G mounting solution with DAPI (Thermo Fisher). Brightfield images were acquired with a Leica DMI4000B microscope, while fluorescent images were acquired with a Leica DM6000 SP5 upright confocal microscope.
# Given that En-1 activation was associated with adoption of a pro-fibrotic phenotype, and that YAP inhibition prevented En-1 activation in vitro, whether YAP inhibition could also block En-1 activation in vivo to reduce scarring in a mouse wounding model was assessed. Adult En-1^Cre;R26^mTmG mice were wounded, and the POD 0 wounds were treated by injecting the wound base with either PBS (control) or Verteporfin (1 mg/mL). […] Wounds were harvested for gross and histological examination at POD 14, 30, or 90. As expected, control wounds healed in a typical scarring fashion (FIG. 4, A middle row). Even after 90 days, the wound site remained bare, forming a distinct region of pale scar tissue in which no hair regrowth occurred (FIG. 4, A middle row, right image). […] This was a striking result, as a hallmark of adult mammalian (scarring) wound healing is a complete lack of regeneration of secondary appendages (e.g., hair follicles, sweat glands), as exemplified by the bare area that remained following control wound healing. […]
# dorsal excisional wounds [2] = experiment: Tensile strength testing (Instron) of healed wounds
# Experimental: Tensile strength tests for unwounded skin (N=7) and PBS (N=5) or Verteporfin-treated (N=4) wounds in P60 C57BL/6 mice were conducted at POD 30 using an Instron 5565 equipped with a 100 N load cell. Dorsal skin was harvested and cut into 4 mm-by-15 mm strips. Tissue strips were then secured using custom grips with the scar positioned equidistant to each grip edge and preloaded to a force of 0.02 N to remove slack before the length of the tissue was measured using digital calipers; the width and thickness of the strips were also re-measured to confirm accurate dimensions. Finally, the skin was subjected to an extension test to failure, defined by a sharp decrease in stress with increasing strain, at a rate of 1%/s. The wound breaking force, or yield force, was determined at the maximal force before the tissue entered plastic deformation and eventual failure. True strain was calculated as the change in length divided by the original gauge length, and true stress was calculated as the force divided by the original cross-sectional area. The Young's Modulus was calculated by taking a least-squares regression of the slope during the linear, elastic portion of the stress-strain curve (R^2>0.99). […] In order to characterize the physical properties of Verteporfin-treated wounds, tensile testing was performed on unwounded skin and PBS- or Verteporfin-treated wounds after 30 days of healing.
# dorsal excisional wounds [3] = experiment: Example 2: excisional wound model, hair regrowth after single Verteporfin injection
# Description: Adult mice were used for cutaneous wound healing experiments in accordance with well-established protocols. Briefly, mice were anesthetized (2% isofluorane), their dorsal hair was removed with depilatory cream, and the dorsal skin was prepped with alcohol wipes. Next, two 6 mm full-thickness circular wounds were placed through the panniculus carnosus on the dorsum of each animal at the same level, roughly 6 mm below the ears and 4 mm lateral to the midline. The wounds were then stented open by 12 mm diameter silicone rings secured around the wound perimeter with glue and 8 simple interrupted Ethilon 6-0 sutures (Ethicon). For mice receiving mechanotransduction inhibitor, 30 μL of Verteporfin (1 mg/mL) was injected locally into the wound base; PBS was injected into wounds for vehicle controls. Post-operative analgesia was accomplished with buprenorphine 0.05 mg/kg every four hours for three doses, and then as indicated. Dressings were changed every other day under anesthesia. […]
# [4] = 30 days, relative to control wounds
# [5] = four treatments (POD 0, 4, 8 and 12)
# [6] = single local injection immediately following wounding
substance,measurement,setting,value
verteporfin,Fibronectin staining,"dorsal excisional wounds [1]; 14 days, vs control wounds",comparatively stronger staining for fibronectin
same,col-I staining,"dorsal excisional wounds [1]; 14 days, vs control wounds",substantially reduced col-I staining
same,Distribution of Dlk1+ cells,dorsal excisional wounds [1]; 30 days,present throughout the dermis
same,CD26 staining,dorsal excisional wounds [1]; [4],decreased staining for CD26
same,Number of EPFs in wounds,dorsal excisional wounds [1]; [4],significantly fewer EPFs
same,Chains of YAP+ cells,"dorsal excisional wounds [1]; 30 days, vs control wounds",markedly shorter
same,IF staining of appendages for cytokeratins 14 and 19 (hair follicle and sweat gland markers),dorsal excisional wounds [1]; POD 90,positive IF staining
same,Oil Red O lipid staining (sebaceous glands),dorsal excisional wounds [1]; POD 90,positive lipid staining
same,Regrowth of dermal appendages,"dorsal excisional wounds [1]; POD 90 (FIG. 4, C)",regrowth of hair follicles and other dermal appendages
same,Fibroblast lineage content of wounds (ENFs vs EPFs),dorsal excisional wounds [1]; after 14 days,almost exclusively ENFs
same,H&E histology: dermal appendage structures,dorsal excisional wounds [1]; by 1 and 3 months,numerous structures morphologically resembling hair follicles or sweat glands
same,H&E histology: fibrosis and cellularity,dorsal excisional wounds [1]; by 2 weeks,reduced fibrosis and increased cellularity
same,Hair regrowth,dorsal excisional wounds [1]; [5],grossly reduced
same,Wound closure,dorsal excisional wounds [1]; [5],delayed
same,Hair growth within healed wound,"dorsal excisional wounds [1]; single dose POD 0, by 30 days",substantial hair growth within the healed wound
same,Gross appearance of healed wound,"dorsal excisional wounds [1]; single dose POD 0, by 90 days",grossly indistinguishable from unwounded skin
same,Wound closure rate,"dorsal excisional wounds [1]; single injection 1 mg/mL into wound base at POD 0, vs PBS",did not significantly affect wound closure rate
same,Number of EPFs in wounds,dorsal excisional wounds [1]; three months of healing,dramatically reduced numbers of EPFs
same,YAP+ cells,dorsal excisional wounds [1]; three months of healing,rare YAP^+ cells
same,α-SMA+ cells,dorsal excisional wounds [1]; three months of healing,virtually no α-SMA^+ cells
same,"Wound closure rates, gross appearance and ECM features",dorsal excisional wounds [1]; two doses (POD 0 and 4),comparable to those of wounds treated with single Verteporfin dose
same,Force-displacement and stress-strain curves,dorsal excisional wounds [2]; after 1 month of healing,more closely resembled unwounded skin than scar
same,Tensile strength (wound breaking force and Young's modulus),"dorsal excisional wounds [2]; after 30 days of healing, vs unwounded skin",did not significantly differ from that of unwounded skin
same,Regrowth of dermal appendages,"dorsal excisional wounds [3]; POD 90 (FIG. 13, C)",regrowth of hair follicles and other dermal appendages
same,Hair regrowth,dorsal excisional wounds [3]; [6],dramatic increase in hair regrowth
same,"Regeneration of new hair follicles (gross, histology, immunohistochemistry)",dorsal excisional wounds [3]; [6],Regeneration of new hair follicles in Verteporfin-treated wounds was observed
same,Wound closure,dorsal excisional wounds [3]; [6],did not delay wound closure
